Results published in patent US6403618B1, “Agent and method for controlling angiogenesis” (Novactyl, Inc., priority 2000, dated 2002).

Key:
LoVo cells [1] = assay: Effect of different doses of fusaric acid on total cell protein; type: cell-based
Experimental: (§1) In initial experiments to examine the effects of fusaric acid on cell growth and viability, WI-38 and LoVo cells were incubated for 24 to 72 hours in medium with or without various doses of fusaric acid (0.1-1 mM). The growth of both WI-38 and LoVo cells was inhibited by 500 μM fusaric acid in a time and dose dependent manner, as shown below in Table 2.

WI-38 cells [2] = assay: as above; type: cell-based; settings: WI-38, 1 mM
Experimental: as §1

[3] = test system: liver adenocarcinoma cell line; assay: Viability of other human carcinoma cell types; type: cell-based; settings: 48 hours of treatment
Experimental: (§2) As in previous examples, the following human cell lines were inhibited by similar concentrations of fusaric acid: Prostatic adenocarcinoma, skin carcinoma, colon carcinoma, liver adenocarcinoma and lung adenocarcinoma. For all these cell types, cell viability decreased by approximately 60% after 48 hours of treatment with fusaric acid.

[4] = test system: Prostatic adenocarcinoma cell line; assay: Viability of other human carcinoma cell types; type: cell-based; settings: 48 hours of treatment
Experimental: as §2

[5] = test system: lung adenocarcinoma cell line; assay: Viability of other human carcinoma cell types; type: cell-based; settings: 48 hours of treatment
Experimental: as §2

skin carcinoma cell line = assay: Viability of other human carcinoma cell types; type: cell-based; settings: 48 hours of treatment
Experimental: as §2

[6] = test system: colon carcinoma cell line; assay: Viability of other human carcinoma cell types; type: cell-based; settings: 48 hours of treatment
Experimental: as §2

[7] = test system: colon carcinoma LoVo cells; assay: Effect of fusaric acid on growth (cell number); type: cell-based
Experimental: After 30 hours of treatment with 500 μM fusaric acid, there was a prominent decrease in cell number. DNA synthesis was completely (100%) inhibited by 24 hours. When treated with 500 μM fusaric acid, the majority of the LoVo cells acquired a rounded morphology by 48 hours.
These floating cells were not viable. […] However, after 100 hours, an increase in cell number was noted after 25 additional hours.

[8] = test system: human breast adenocarcinoma MDA-468 cells; assay: Effect of fusaric acid on growth (cell number); type: cell-based
Experimental: (§3) After 12-24 hours of treatment with 500 μM fusaric acid, there was no further increase in cell number. […] These floating cells were not viable. Within 30 hours of treatment there was a 65% decrease in cell number. […] After 96 hours, less than 10% of the original population remained attached to the dish and no change in cell number was noted after one additional week.

LoVo cells [9] = assay: Viability by trypan blue dye exclusion; type: cell-based; settings: 500 μM
Experimental: As in the case of WI-38, LoVo cell viability after fusaric acid treatment was investigated in logarithmically growing and confluent cells, as shown in Tables 2 and 3. In logarithmically growing LoVo cells, approximately 38% of the attached cells were viable after 30 hours of treatment with fusaric acid. When the cells were treated for 78 hours, only 4.5% of the cell population survived the pronounced cytotoxic actions of fusaric acid. […] Thus, LoVo cells are much more sensitive to the cytotoxic actions of fusaric acid in both growing and confluent population of cells in comparison to normal WI-38 cells.

WI-38 cells [10] = assay: Effect of fusaric acid on growth (cell number); type: cell-based
Excerpt: The remaining cells were spread on the substratum in normal manner without any visible mitosis for 4 days after removal of the drug.

KB cells = assay: Viability by trypan blue dye exclusion; type: cell-based, human; settings: confluent cells, 500 μM, 48 h
Experimental: To examine KB cell viability in greater detail, the effects of fusaric acid were studied in logarithmically growing and confluent cells. In logarithmically growing KB cells 70% of the cells were viable after 48 hours in 500 μM fusaric acid. […] Thus, in contrast to LoVo cells, a significant proportion of the population of growing (70%) cells and virtually all (95%) of confluent KB cells resisted the pronounced cytotoxic action of fusaric acid (See Tables 3 and 4, above).

MDA-468 cells [11] = assay: DNA synthesis; type: cell-based; settings: Homo sapiens, by 24 hr, read-out: DNA synthesis inhibited
Experimental: as §3

WI-38 cells [12] = assay: Viability by trypan blue dye exclusion; type: cell-based; settings: 500 μM
Experimental: To examine WI-38 cell viability in greater detail, the effects of fusaric acid were studied in logarithmically growing and contact inhibited confluent cells (Tables 2 and 3). In logarithmically growing WI-38 cells approximately 76% of the cells were viable after 30 hours of treatment with fusaric acid. When the cells were treated for 78 hours, only 26% of the cell population survived the pronounced cytotoxic actions of fusaric acid.

MDA-468 cells [13] = type: cell-based, human
Experimental: As in the case of WI-38, MDA-468 cell viability after fusaric acid treatment was investigated in logarithmically growing and confluent cells. In logarithmically growing MDA-468 cells, less than 20% of the attached cells were viable after 30 hours of treatment with fusaric acid. When the cells were treated for 48 hours, only 0.1% of the cell population survived the pronounced cytotoxic actions of fusaric acid. […] Thus, MDA-468 cells are extremely sensitive to the cytotoxic actions of fusaric acid in both growing and confluent population of cells in comparison to normal WI-38 lines studied.

[14] = 500 μM, within 30 hours of treatment
[15] = logarithmic growth, 30 h, listed as Fusaric Acid

For `CCCCc1ccc(C(=O)O)nc1` [fusaric acid], the cytotoxicity (LoVo cells [1]; 1 mM fusaric acid, by 24 hours) was “extensive cytotoxicity”, the “Monolayer Protein” value (LoVo cells [1]; LoVo, 0.5 mM, 48 h) was 90 μg/dish and the “Monolayer Protein” value (WI-38 cells [2]; 24 h) was 236 μg/dish. For the same molecule, the “Monolayer Protein” value (WI-38 cells [2]; 48 h) was 202 μg/dish, the cell viability decreased [3] was “approximately 60%” and the cell viability decreased [4] was “approximately 60%”. The cell viability decreased [5] was “approximately 60%”, the cell viability decreased (skin carcinoma cell line) was “approximately 60%” and the cell viability decreased [6] was “approximately 60%”. For the same molecule, the “decrease in cell number” value [7, 14] was 60%, the “decline of cell population after removal of the drug” value ([7]; removal after 30 hours, up to approximately 100 hours) was roughly 80% and the “decrease in cell number” value [8, 14] was 65%. For the same molecule, the “original population remaining attached to the dish” value ([8]; drug removed after 30 hours, after 96 hours) was “less than 10%”, the “% Survival” value (LoVo cells [9]; confluent cells, 48 h) was 40% and the “% Survival” value (LoVo cells [9]; logarithmic growth, 30 h) was “approximately 38%”. The “% Survival” value (LoVo cells [9]; [15]) was 38.5%, the “% Survival” value (LoVo cells [9]; logarithmic growth, 78 h) was 4.5% and the “decrease in cell number” value (WI-38 cells [10]; 30 hours with 500 μM, then 4 days in normal media) was 30%. The cells survived (WI-38 cells [10]; after removal of fusaric acid, 500 μM for 30 hours) was greater than 95%, the “% Survival” value (KB cells) was 95% and the inhibition at 500 µM (MDA-468 cells [11]) was 100%. The “% Survival” value (WI-38 cells [12]; confluent cells, 48 h) was 100%, the “% Survival” value (WI-38 cells [12]; [15]) was 76.4% and the “% Survival” value (WI-38 cells [12]; logarithmic growth, 78 h) was 26%. For the same molecule, the cells survived (MDA-468 cells [13]; confluent cells, 500 μM, 48 hours) was 10%, the attached cells viable (MDA-468 cells [13]; logarithmic growth, 30 hours) was “less than 20%” and the cell population survived (MDA-468 cells [13]; logarithmic growth, 48 hours) was 0.1%.
